Measurements as given in ChEMBL document CHEMBL4118239, “Novel leucine ureido derivatives as aminopeptidase N inhibitors using click chemistry” (Bioorg Med Chem, 2018).
Activity calls are given as the source filed them. No cut-off for these calls is given here.

Tests used:
Aminopeptidase N [1] = target: T1, Aminopeptidase N (Sus scrofa, UniProt P15145); experiment: Inhibition of APN in porcine kidney microsomes using L-Leu-pnitroanilide as substrate pretreated for 5 mins followed by substrate addition measured after 30 mins
T1 sequence (P15145 whole entry): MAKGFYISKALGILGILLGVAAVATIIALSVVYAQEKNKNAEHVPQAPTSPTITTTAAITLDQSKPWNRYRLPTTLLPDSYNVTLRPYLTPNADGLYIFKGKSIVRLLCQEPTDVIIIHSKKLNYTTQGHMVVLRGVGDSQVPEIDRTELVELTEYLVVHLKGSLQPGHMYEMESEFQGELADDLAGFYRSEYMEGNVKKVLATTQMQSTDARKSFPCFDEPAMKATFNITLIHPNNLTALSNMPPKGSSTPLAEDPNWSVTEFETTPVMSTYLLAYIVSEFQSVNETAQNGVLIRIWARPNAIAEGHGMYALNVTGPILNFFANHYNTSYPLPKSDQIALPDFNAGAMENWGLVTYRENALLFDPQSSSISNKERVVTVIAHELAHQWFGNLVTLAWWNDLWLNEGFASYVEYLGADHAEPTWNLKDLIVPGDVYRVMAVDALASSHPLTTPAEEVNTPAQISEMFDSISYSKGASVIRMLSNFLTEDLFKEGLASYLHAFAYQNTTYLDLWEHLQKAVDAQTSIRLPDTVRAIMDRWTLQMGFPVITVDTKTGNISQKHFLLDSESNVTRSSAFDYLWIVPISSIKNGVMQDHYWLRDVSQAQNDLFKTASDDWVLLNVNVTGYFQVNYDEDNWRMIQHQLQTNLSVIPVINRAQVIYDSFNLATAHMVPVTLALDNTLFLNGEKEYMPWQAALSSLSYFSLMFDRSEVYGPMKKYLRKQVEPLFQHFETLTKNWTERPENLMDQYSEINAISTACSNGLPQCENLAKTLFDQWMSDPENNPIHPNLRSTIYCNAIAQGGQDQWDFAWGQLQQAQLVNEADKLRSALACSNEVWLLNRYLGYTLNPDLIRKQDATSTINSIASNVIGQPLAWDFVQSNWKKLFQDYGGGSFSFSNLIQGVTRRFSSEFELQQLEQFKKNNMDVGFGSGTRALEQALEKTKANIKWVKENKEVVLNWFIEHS

HUVEC [2] = experiment: Antiangiogenic activity in HUVEC assessed as inhibition of capillary-like tube formation after 4 hrs by matrigel-based assay; type: functional, cell-based; details: Homo sapiens
Mus musculus [3] = experiment: Hepatotoxicity in Kunming mouse implanted with mouse H22 cells at 60 mg/kg, ip administered once daily for 12 days; type: toxicity, organism-based; details: in vivo, 288 h
Mus musculus [4] = experiment: Toxicity in Kunming mouse implanted with mouse H22 cells assessed as effect on spleen at 60 mg/kg, ip administered once daily for 12 days; type: organism-based; details: in vivo, 288 h
HCT-116 = experiment: cells; details: Homo sapiens, HCT-116, 48 h
Mus musculus [5] = experiment: Toxicity in Kunming mouse implanted with mouse H22 cells assessed as body weight loss at 60 mg/kg, ip administered once daily for 12 days measured every 2 days during compound dosing; type: organism-based; details: in vivo
PC-3 = experiment: cells; details: Homo sapiens, PC-3, 48 h
Thoracic aorta [6] = experiment: Antiangiogenic activity in Sprague-Dawley rat thoracic aorta ring assessed as reduction in micro-vessel growth supplemented with fresh medium containing compound every 3 for 9 days measured on day 9 by matrigel-based inverted microscopic analysis; type: functional, tissue-based
U-937 = experiment: cells; details: Homo sapiens, U-937, 48 h
Description: Antiproliferative activity against human U937 cells after 48 hrs by MTT assay

Aminopeptidase N [7] = target: T2, Aminopeptidase N (Homo sapiens, UniProt P15144); experiment: Inhibition of APN in human PLC/PRF/5 cells using L-Leu-pnitroanilide as substrate pretreated for 5 mins followed by substrate addition measured after 1 hr; type: cell-based
Aminopeptidase N [8] = target: T2, Aminopeptidase N; experiment: Inhibition of APN in human ES2 cells using L-Leu-pnitroanilide as substrate pretreated for 5 mins followed by substrate addition measured after 1 hr; type: cell-based
PLC = experiment: cells; details: Homo sapiens, 48 h
Description: Antiproliferative activity against human PLC cells after 48 hrs by MTT assay

A549 = experiment: cells; details: Homo sapiens, A549, 48 h
cells = details: Homo sapiens, ES-2, 48 h
Description: Antiproliferative activity against human ES2 cells after 48 hrs by MTT assay

H22 = experiment: Anti-metastatic activity against mouse H22 cells implanted in Kunming mouse assessed as reduction in number of metastatic nodes at 60 mg/kg, ip administered once daily for 12 days measured on day 13 by bouin's staining based assay relative to control; type: functional; set-up: scale not given: the % may be the effect or the level left
K562 = experiment: cells; details: Homo sapiens, K562, 48 h
MDA-MB-231 = experiment: Antiproliferative activity against human MDA-MB-231 cells after 48 hrs by MTT assay; details: MDA-MB-231, 48 h
Thoracic aorta [9] = experiment: Antiangiogenic activity in Sprague-Dawley rat thoracic aorta ring assessed as reduction in micro-vessel growth at 100 uM supplemented with fresh medium containing compound every 3 for 9 days measured on day 9 by matrigel-based inverted microscopic analysis; type: functional, tissue-based
HUVEC [10] = experiment: Antiangiogenic activity in HUVEC assessed as inhibition of capillary-like tube formation at 100 uM after 4 hrs by matrigel-based assay; type: functional, cell-based; details: Homo sapiens

T2 sequence (P15144 whole entry): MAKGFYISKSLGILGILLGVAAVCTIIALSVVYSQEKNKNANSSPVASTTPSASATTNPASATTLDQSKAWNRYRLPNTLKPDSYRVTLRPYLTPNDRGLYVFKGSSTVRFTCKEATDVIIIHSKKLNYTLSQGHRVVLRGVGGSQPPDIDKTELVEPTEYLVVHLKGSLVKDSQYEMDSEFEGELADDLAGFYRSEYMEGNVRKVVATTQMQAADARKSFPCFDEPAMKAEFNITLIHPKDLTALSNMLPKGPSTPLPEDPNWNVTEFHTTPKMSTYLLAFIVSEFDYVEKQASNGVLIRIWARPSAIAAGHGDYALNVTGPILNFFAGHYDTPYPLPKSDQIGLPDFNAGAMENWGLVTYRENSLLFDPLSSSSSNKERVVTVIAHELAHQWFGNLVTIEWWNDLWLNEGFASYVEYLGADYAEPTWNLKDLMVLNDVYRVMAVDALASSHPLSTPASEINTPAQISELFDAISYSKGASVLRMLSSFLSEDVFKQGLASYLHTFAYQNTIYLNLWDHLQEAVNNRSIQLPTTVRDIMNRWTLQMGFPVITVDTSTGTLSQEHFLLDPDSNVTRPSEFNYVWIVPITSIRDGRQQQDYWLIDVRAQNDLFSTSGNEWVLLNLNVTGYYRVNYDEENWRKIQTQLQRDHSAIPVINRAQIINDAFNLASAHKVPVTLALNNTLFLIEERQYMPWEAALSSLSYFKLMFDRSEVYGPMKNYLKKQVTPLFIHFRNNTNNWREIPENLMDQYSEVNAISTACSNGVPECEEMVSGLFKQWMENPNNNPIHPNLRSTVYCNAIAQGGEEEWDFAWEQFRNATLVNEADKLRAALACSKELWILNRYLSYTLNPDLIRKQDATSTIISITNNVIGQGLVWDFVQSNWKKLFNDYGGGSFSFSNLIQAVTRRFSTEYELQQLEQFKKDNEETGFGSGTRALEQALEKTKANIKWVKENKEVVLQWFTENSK

Compound	IC50 (Aminopeptidase N [1]) [µM]	further results
CC(C)C[C@H](NC(=O)NCc1cn(C/C=C/c2ccccc2)nn1)C(=O)NO	2.2	
CCOc1ccc(Cn2cc(CNC(=O)N[C@@H](CC(C)C)C(=O)NO)nn2)cc1	1.5	
CC(C)C[C@H](NC(=O)NCc1cn(Cc2ccc3ccccc3c2)nn1)C(=O)NO	3.9	
CC(C)C[C@H](NC(=O)NCc1cn(Cc2ccc(Cl)c(Cl)c2)nn1)C(=O)NO	5.5	
CC(C)C[C@H](NC(=O)NCc1cn(Cc2ccccc2[N+](=O)[O-])nn1)C(=O)NO	3.4	
CC(C)C[C@H](NC(=O)NCc1cn(Cc2ccccc2N)nn1)C(=O)NO	0.68	
CC(C)C[C@H](NC(=O)NCc1cn(C(C)c2ccccc2)nn1)C(=O)NO (stereo partly drawn)	1.9	
CC(C)C[C@H](NC(=O)NCc1cn(Cc2ccccc2OCc2ccccc2)nn1)C(=O)NO	0.089	inhibition (HUVEC [2]): Dose-dependent effect; Activity (Mus musculus [3]): Non-Toxic; Activity (Mus musculus [4]): Non-Toxic; IC50 (HCT-116): 81.2 µM; Activity (Mus musculus [5]): Non-Toxic; IC50 (PC-3): 119 µM; Activity (Thoracic aorta [6]): Dose-dependent effect; IC50 (U-937): 68.4 µM; IC50 (Aminopeptidase N [7]): 1.3 µM; IC50 (Aminopeptidase N [8]): 0.74 µM; IC50 (PLC): 92.8 µM; IC50 (A549): 90 µM; IC50 (cells): 105 µM; Activity (H22): 71%; IC50 (K562): 85 µM; IC50 (MDA-MB-231): 72.5 µM
CC(C)C[C@H](NC(=O)NCc1cn(Cc2ccc(Cl)cc2)nn1)C(=O)NO	6.9	
CC(C)C[C@H](NC(=O)NCc1cn(Cc2ccccc2Cl)nn1)C(=O)NO	0.67	
CC(C)C[C@H](NC(=O)NCc1cn(Cc2cccc(OCc3ccccc3)c2)nn1)C(=O)NO	0.24	IC50 (HCT-116): 130 µM; IC50 (PC-3): 123 µM; IC50 (U-937): 70.3 µM; IC50 (Aminopeptidase N [7]): 4.9 µM; IC50 (Aminopeptidase N [8]): 0.87 µM; IC50 (PLC): 112 µM; IC50 (A549): 128 µM; IC50 (cells): 108 µM; IC50 (K562): 99.8 µM; IC50 (MDA-MB-231): 72.6 µM
Cc1cccc(Cn2cc(CNC(=O)N[C@@H](CC(C)C)C(=O)NO)nn2)c1	2.2	
COc1ccccc1C(C)n1cc(CNC(=O)N[C@@H](CC(C)C)C(=O)NO)nn1 (stereo partly drawn)	0.55	IC50 (Aminopeptidase N [7]): 12.3 µM; IC50 (Aminopeptidase N [8]): 4.8 µM
CC(C)C[C@H](NC(=O)NCc1cn(Cc2cccc(C#N)c2)nn1)C(=O)NO	7.8	
COc1cc(Cn2cc(CNC(=O)N[C@@H](CC(C)C)C(=O)NO)nn2)cc(OC)c1OC	1.4	
COc1cccc(OC)c1Cn1cc(CNC(=O)N[C@@H](CC(C)C)C(=O)NO)nn1	0.47	
Cc1cccc(C)c1Cn1cc(CNC(=O)N[C@@H](CC(C)C)C(=O)NO)nn1	0.39	
CC(C)C[C@H](NC(=O)NCc1cn(Cc2ccccc2)nn1)C(=O)NO	2.1	
CC(C)C[C@H](NC(=O)[C@@H](O)[C@H](N)Cc1ccccc1)C(=O)O [UBENIMEX]		Activity (Thoracic aorta [9]): Active; inhibition (HUVEC [10]): Active; Activity (H22): 64%
CC(C)C[C@H](NC(=O)NCc1cn(CCc2ccccc2)nn1)C(=O)NO	3.6	
COc1ccc(Cn2cc(CNC(=O)N[C@@H](CC(C)C)C(=O)NO)nn2)cc1OC	2.6	

Compound	IC50 (Aminopeptidase N [1]) [µM]	further results
CC(C)C[C@H](NC(=O)NCc1cn(Cc2cccnc2)nn1)C(=O)NO	2.2	
COc1ccccc1Cn1cc(CNC(=O)N[C@@H](CC(C)C)C(=O)NO)nn1	0.65	IC50 (Aminopeptidase N [7]): 15.3 µM; IC50 (Aminopeptidase N [8]): 6.5 µM
Cc1ccc(Cn2cc(CNC(=O)N[C@@H](CC(C)C)C(=O)NO)nn2)cc1	3.6	
CC[C@@H](C)[C@H](NC(=O)NCc1cn(Cc2ccccc2)nn1)C(=O)NO	13.6	
CC(C)C[C@H](NC(=O)NCc1cn(Cc2c(Cl)cccc2Cl)nn1)C(=O)NO	0.58	
Cc1ccccc1Cn1cc(CNC(=O)N[C@@H](CC(C)C)C(=O)NO)nn1	0.76	IC50 (Aminopeptidase N [7]): 20.6 µM; IC50 (Aminopeptidase N [8]): 6.9 µM
O=C(NCc1cn(Cc2ccc(Cl)cc2)nn1)N[C@H](C(=O)NO)c1ccccc1	11.3	
CC(C)C[C@H](NC(=O)NCc1cn(Cc2cccc3ccccc23)nn1)C(=O)NO	1.4	
CCOc1cccc(Cn2cc(CNC(=O)N[C@@H](CC(C)C)C(=O)NO)nn2)c1	0.82	
CC(C)C[C@H](NC(=O)NCc1cn(Cc2cccc([N+](=O)[O-])c2)nn1)C(=O)NO	1.7	
CC(C)C[C@H](NC(=O)NCc1cn(C(c2ccccc2)c2ccccc2)nn1)C(=O)NO	2.3	
COc1cccc(Cn2cc(CNC(=O)N[C@@H](CC(C)C)C(=O)NO)nn2)c1	0.91	
COc1ccc(Cn2cc(CNC(=O)N[C@@H](CC(C)C)C(=O)NO)nn2)cc1	1.9	
CC(C)C[C@H](NC(=O)NCc1cn(Cc2ccc(Br)cc2)nn1)C(=O)NO	7.8	
CC(C)C[C@H](NC(=O)NCc1cn(Cc2ccccc2Br)nn1)C(=O)NO	0.88	
CCOc1ccccc1Cn1cc(CNC(=O)N[C@@H](CC(C)C)C(=O)NO)nn1	0.44	IC50 (Aminopeptidase N [7]): 5 µM; IC50 (Aminopeptidase N [8]): 2.1 µM
CC(C)C[C@H](NC(=O)NCc1cn(Cc2cccc(Cl)c2)nn1)C(=O)NO	3.1	
CC(C)C[C@H](NC(=O)NCc1cn(Cc2ccc([N+](=O)[O-])cc2)nn1)C(=O)NO	1	
CC(C)C[C@H](NC(=O)NCc1cn(Cc2ccc(C#N)cc2)nn1)C(=O)NO	1.4	
CC(C)C[C@H](NC(=O)NCc1cn(Cc2cccc(N)c2)nn1)C(=O)NO	3.7	
CC(C)C[C@H](NC(=O)NCc1cn(Cc2cccc(Br)c2)nn1)C(=O)NO	3.5	
